Data from patent US20060100177A1, “Stabilized ascorbic acid derivatives” (priority 2002, published 2006).

Assays:
[1] = stability test of aqueous solution, ratio of compound remaining after storage (HPLC); format: physicochemical; details: 2 mass % in purified water, glass bottle, 40° C., light-shielding, 10 days
Experimental: (under light-shielding condition) for 10 days. The ratio of the compound remaining after the storage was analyzed by using a high-performance liquid chromatograph equipped with Shodex (registered trademark of Showa Denko K.K.) SB802.5 HQ (mfd. by Showa Denko K.K.) column.
(Measurement Conditions for High-Performance Liquid Chromatography)

[2] = test system: guinea pig incised wound; assay: collagen synthesis-accelerating effect in guinea pig model system having an incised wound; format: in vivo; details: for Detachment tension / Hydroxyproline content: 0.2 ml test solution twice a day for four days (1) 2%; 2) and 3) 1%); for Detachment tension: incised wound on back; for Hydroxyproline content: skin section with incised wound, index of collagen; for effect on collagen synthesis and recovery of incised wound (in words): guinea pig incised wound
Description: The collagen synthesis-accelerating effects of the following 1) to 3) test substances was compared with each other, by using a guinea pig model system having an incised (or cut) wound. The base material for dissolving each test substance was purified water containing 20% of ethanol, and 3% of propylene glycol. In this experiment, two incised wounds each having a length of 2 cm were formed on the back of a guinea pig by using a scalpel, so that the incised wounds are positioned symmetrically with regard to the center portion of the back. Then, 0.2 ml of the test substance solution was administered thereto twice a day, for four days. After the last administration was completed, a skin piece of 2 cm×2 cm (square shape) was surgically removed from the back of the guinea pig, so that the incised wound portions were positioned substantially at the center of the skin piece. Then, the tension required for the detachment of the incised wound surface was measured. Five guinea pigs were used with respect to one kind of the test substances. […] After the separation thereof by centrifugation, the resultant supernatant was freeze-dried. The protein content of the thus obtained skin sample was hydrolyzed with hydrochloric acid, and was subjected to amino acid analysis by use of AccQ.Tag Amino acid Analyzer (mfd. by Waters Co.). The results of the detachment tension measurement for the incised wound portion to which each test substance had been applied, and the hydroxyproline content thereof were as follows. Herein, the hydroxyproline is a substance which can be taken as an index of collagen.

[3] = test system: human skin tissue three-dimensional model (TESTSKIN LSD-d); assay: amount of ascorbic acid in human skin tissue three-dimensional model after application of test solution; format: cell-based; details: for amount of the ascorbic acid, 2 hours after culture / amount of the ascorbic acid, 6 hours after culture / amount of the ascorbic acid, 12 hours after culture: 40 μL test solution in Dulbecco PBS(−) applied 2 h (1) 2%; 2) and 3) 0.5%), removed; for amount of the ascorbic acid, 2 hours after culture: then cultured 2 hours; for amount of the ascorbic acid, 6 hours after culture: then cultured 6 hours; for amount of the ascorbic acid, 12 hours after culture: then cultured 12 hours; for concentration of ascorbic acid in the tissue (in words): administered to the skin model
Experimental: To the surface of a human skin tissue three-dimensional model (trademark: TESTSKIN LSD-d, mfd. by Toyobo Co., Ltd.), 40 μL of a solution which had been obtained by dissolving each of the substances (1) to (3) to be tested in Dulbecco PBS (−), and the resultant skin tissue model was cultured at 37° C. in the presence of 5% CO2 for two hours. Then, the test solution was removed by aspiration, and thereafter the skin tissue model was cultured at 37° C. in the presence of 5% CO2 for 2, 6 and 12 hours, respectively.
Each of the portions of the skin model which had been sampled at each culture time was washed with Dulbecco PBS (−), the surface portion was punched out by using a punch having a diameter of 6 mm φ, and homogenized in a HEPES buffer solution (pH 7.2) to obtain a homogenate. By use of the thus obtained homogenate, the amount of the ascorbic acid contained in the skin model was quantitatively analyzed by using a high performance liquid chromatography. The protein content in the skin model was quantitatively analyzed by using the Lowry method.
Measurement Conditions for High Performance Liquid Chromatography

Structure (SMILES) | Residual Ratio (%) [1] [%] | Detachment tension [2] [g/cm] | Hydroxyproline content [2] [nmol/skin wet weight] | amount of the ascorbic acid, 2 hours after culture [3] [nmol/mg skin protein] | amount of the ascorbic acid, 6 hours after culture [3] [nmol/mg skin protein] | amount of the ascorbic acid, 12 hours after culture [3] [nmol/mg skin protein] | concentration of ascorbic acid in the tissue (in words) [3] | effect on collagen synthesis and recovery of incised wound (in words) [2]
O=C1O[C@H]([C@@H](O)CO)C(O)=C1OP(=O)([O-])[O-].[Na+].[Na+] [Comparative Example A-2, L-ascorbic acid-2-phosphate sodium salt, reference compound] | 96.9 | 123 | 32.1 |  |  |  |  | 
CCCCCCCCCCCCCCCC(=O)OC[C@H](O)[C@H]1OC(=O)C(OP(=O)(O)O)=C1O.[Na] [Comparative Example A-1, L-ascorbic acid-2-phosphoric acid-6-palmitatic acid ester sodium salt, reference compound] | 88.6 |  |  |  |  |  |  | 
CCCCCCCCC(CCCCCC)C(=O)OC[C@H](O)[C@H]1OC(=O)C(OP(=O)(O)O)=C1O.[Na] (stereo partly drawn) [Example A-1, L-Ascorbic acid-2-phosphoric acid-6-(2′-hexyldecanoate) sodium salt] | 95.3 | 181 | 38.5 | 6 | 10 | 23 | concentration of the ascorbic acid in the tissue could easily be enhanced effectively | had an effect of accelerating the collagen synthesis
CCCCCCCCCC(CCCCCCC)C(=O)OC[C@H](O)[C@H]1OC(=O)C(OP(=O)(O)O)=C1O.[Na] (stereo partly drawn) [Example A-2, L-Ascorbic Acid-2-Phosphoric Acid-6-(2′-n-Heptylundecanoate) sodium salt] | 95.5 | 187 | 37.6 | 5 | 11 | 26 | concentration of the ascorbic acid in the tissue could easily be enhanced effectively | had an effect of accelerating the collagen synthesis
